We go through 26 molecules from article PMC12663132, “Assessment of cytotoxicity of some synthetic compounds against breast carcinoma spheroids with subsequent analysis of pro-apoptotic and gene expression” (Scientific Reports, 2025).

One data set has as its system MCF7. Nature of the data set: Cytotoxicity on MCF7 monolayers (MTT assay). The settings on record: for cytotoxicity at 50 µM: Homo sapiens, MCF7, 72 h, read-out: Mean of % cytotoxicity ± SD; for % inhibition 2D / Mean of % cytotoxicity ± SD: MCF7 monolayer; for % inhibition 2D: 50 µM; for Mean of % cytotoxicity ± SD: 50µM, 72 h, MTT. On the technique in general: Tetrazolium assays rely on reduction of a dye to a coloured formazan, in cell work by metabolically active cells.

The next data set has as its system MCF7 3D spheroids. Description: Cytotoxicity on MCF7 3D multicellular spheroids (acid phosphatase method). As to conditions: for cytotoxicity at 50 µM: Homo sapiens, MCF7, 120 h, read-out: Mean of % cytotoxicity ± S.D; for % inhibition 3D / Mean of % cytotoxicity ± S.D: MCF7 3D spheroids; for % inhibition 3D: 50 µM; for Mean of % cytotoxicity ± S.D: 50µM, 120 h.

Protocol for MCF7 3D spheroids: Eighty pre-plated synthetic chemical compounds were screened on two human cell lines: MCF7 (ATCC® HTB-22™), a Caucasian breast adenocarcinoma model, and hTERT-RPE-1 (ATCC® CRL-4000™), a normal retinal epithelial cell line immortalized by hTERT telomerase. […] The cells were cultured in DMEM-F12 medium supplemented with L-glutamine and 10% fetal bovine serum, all were purchase from Biowest (Biotechnology company in Nuaillé, France), and maintained in a controlled incubator environment set at 37 °C with 5% CO2 and 95% humidity.
3-D spheroid models were generated from MCF7 cancer and hTERT-RPE1 normal cells were seeded at 10,000 and 50,000 cells/well, respectively, in poly-HEMA coated round bottom plates according to the protocol previously mentioned[44]. The cells were incubated for 5 days to generate the spheroids with diameter of 500 ± 20 µm. The spheroids were imaged using Olympus S100, U-CMAD3 camera connected to Olympus inverted microscope and the diameter of the spheroids was measured using Cellscen-Entry software. Test compounds were added in triplicate to a final concentration of 50 µM and were incubated for 120 h. […] At the end of incubation, cytotoxicity was determined using the acid phosphatase method[45]. After washing twice with 250 μL PBS buffer, 100 μL of 0.1 M sodium citrate, 0.1% Triton X-100, p-nitrophenylphosphate (2 mg/ml) (Pierce Biotechnology Inc., Rockford, IL) was added to each well and incubated for 1.5 h at 37 °C. After incubation, 10 μL of 1N NaOH stop solution was added to each well, and absorbance was read at 405 nm. Cytotoxicity was calculated according to the following equation:

Consider `CCOC1=NC(=Cc2[nH]c(OCC)c(CC(=O)OC)c2C(=O)OC)C(C(=O)OC)=C1CC(=O)OC` [E02, methyl 5-ethoxy-2-{[5-ethoxy-3-(methoxycarbonyl)-4-(2-methoxy-2-oxoethyl)-2H-pyrrol-2-yliden]methyl}-4-(2-methoxy-2-oxoethyl)-1H-pyrrole-3-carboxylate], for which the cytotoxicity at 50 µM with MCF7 was 83.2 ± 1.2%; in the data set on MCF7 3D spheroids, -10.8 ± 0.7%.

As for `CC(C)(C)SCCNc1nc(Oc2ccc(F)cc2)nc(Oc2ccc(F)cc2)n1` [E03, N2-[2-(tert-butylthio)ethyl]-4,6-di(4-fluorophenoxy)-1,3,5-triazin-2-amine], the cytotoxicity at 50 µM is 80.3 ± 1.5% in the data set with MCF7 and 41.8 ± 0.6% in the data set with MCF7 3D spheroids.

Take `CCOc1nc2ccccc2nc1OCC` [E04, 2,3-diethoxyquinoxaline]: the cytotoxicity at 50 µM in the data set on MCF7 is 62.6 ± 3.1%; in the data set with MCF7 3D spheroids it was 42 ± 1.1%.

As to `CN(C)C=C1Cc2ccccc2C1=O` [E05, 2-[(dimethylamino)methylidene]indan-1-one], the cytotoxicity at 50 µM came to 47.5 ± 6.2% in the data set with MCF7 and 41.4 ± 3.6% with MCF7 3D spheroids.

For `N#CC1(c2ccccc2)N=C2C=CC=CN2N=C1c1ccccc1` (centres unmarked) [E06, 2,3-diphenyl-2H-pyrido[1,2-b][1,2,4]triazine-2-carbonitrile], the values for the cytotoxicity at 50 µM in the data set with MCF7 and with MCF7 3D spheroids were 26.7 ± 1.18% and 55 ± 1.6%, respectively.

Take `NS(=O)(=O)c1ccc(NNC(=O)c2cccs2)cc1` [E07, 4-[2-(2-thienylcarbonyl)hydrazino]benzenesulfonamide]: the cytotoxicity at 50 µM in the data set with MCF7 amounted to 0%; in the data set on MCF7 3D spheroids, 36.2 ± 0.35%.

In the case of `NC(=NOC(=O)Nc1ccc(OC(F)(F)F)cc1)c1cnccn1` [E08, N'-({[4-(trifluoromethoxy)anilino]carbonyl}oxy) pyrazine-2-carboximidamide], in the data set with MCF7, the “% inhibition 2D” value stood at 84.1% and the “Mean of % cytotoxicity ± SD” value turned out to be 84.1 ± 1.6%. In the data set with MCF7 3D spheroids, the “% inhibition 3D” value stood at 40.2% and the “Mean of % cytotoxicity ± S.D” value is listed as 40.2 ± 3.8%.

Take `COc1ccc(Cl)cc1NC(=O)Nc1ccc(N2CCCCC2)cc1` [E09, N-(5-chloro-2-methoxyphenyl)-N'-(4-piperidinophenyl) urea]: the cytotoxicity at 50 µM with MCF7 came to 28.3 ± 0.9%; in the data set on MCF7 3D spheroids, 50.7 ± 0.52%.

As to `CC1(C)C=Cc2cc(C(N)=NOC(=O)c3cccc(C(F)(F)F)c3)ccc2O1` [E10, O6-[3-(trifluoromethyl)benzoyl]-2,2-dimethyl-2H-chromene-6-carbohydroximamide], the cytotoxicity at 50 µM amounted to 100 ± 0.003% in the data set on MCF7 and 67.5 ± 0.5% in the data set on MCF7 3D spheroids.

Consider `CC1(C)CC(=O)C2=C(C1)OC(N)=C(C#N)C2c1ccc(Cl)cc1` (centres unmarked) [E11, 2-amino-4-(4-chlorophenyl)-7,7-dimethyl-5-oxo-5,6,7,8-tetrahydro-4H-chromene-3-carbonitrile], for which the cytotoxicity at 50 µM is 93.7 ± 1.29% in the data set with MCF7 and 66.4 ± 1.9% in the data set on MCF7 3D spheroids.

For the molecule `O=C1C2CCN(CC2)C1CSc1ccc(Cl)cc1` (centres unmarked) [F02, 2-{[(4-chlorophenyl)thio]methyl}quinuclidin-3-one], the cytotoxicity at 50 µM came to 100 ± 0.003% in the data set on MCF7 and 52 ± 2.9% in the data set with MCF7 3D spheroids.

For the molecule `O=C1C2CC=CCC2C(=O)N1c1cccc(N2C(=O)C3CC=CCC3C2=O)n1` (centres unmarked) [F04, 2-[6-(1,3-dioxo-2,3,3a,4,7,7a-hexahydro-1H-isoindol-2-yl)-2-pyridyl]-2,3,3a,4,7,7a-hexahydro-1H-isoindole-1,3-dione], the cytotoxicity at 50 µM turned out to be 46.9 ± 2.6% in the data set on MCF7 and 29.8 ± 1.23% in the data set on MCF7 3D spheroids.

Take `O=C1CNC(=S)N1CCOc1ccc(Cl)cc1` [F05, 3-[2-(4-chlorophenoxy)ethyl]-2-thioxoimidazolidin-4-one]: the cytotoxicity at 50 µM is 96.9 ± 1.4% with MCF7 and 31.6 ± 0.8% with MCF7 3D spheroids.

In the case of `Cc1ccc(S(=O)(=O)CCNC(=O)c2c(-c3c(Cl)cccc3Cl)noc2C)cc1` [F07, N4-{2-[(4-methylphenyl)sulfonyl]ethyl}-3-(2,6-dichlorophenyl)-5-methylisoxazole-4-carboxamide], the cytotoxicity at 50 µM in the data set on MCF7 is 4.4 ± 0.118%; with MCF7 3D spheroids, 54.2 ± 0.53%.

Consider `OC(CSc1ccccc1)CN1CCN(c2nccc(C(F)(F)F)n2)CC1` (centres unmarked) [F08, 1-(phenylthio)-3-{4-[4-(trifluoromethyl)pyrimidin-2-yl]piperazino}propan-2-ol], for which the cytotoxicity at 50 µM in the data set with MCF7 was determined as 100 ± 0.003%; in the data set on MCF7 3D spheroids it was 61.6 ± 0.8%.

Turning to `Cc1nnsc1-c1nnc(-c2ccccc2C(F)(F)F)o1` [F09, 2-(4-methyl-1,2,3-thiadiazol-5-yl)-5-[2-(trifluoromethyl)phenyl]-1,3,4-oxadiazole], the cytotoxicity at 50 µM in the data set with MCF7 was found to be 9.9 ± 3.8%; in the data set on MCF7 3D spheroids it was 14.2 ± 0.5%.

With `O=C1C(=C2NC(c3ccccn3)C3C(=O)N(c4ccc(OC(F)(F)F)cc4)C(=O)C23)C(=O)c2ccccc21` (centres unmarked) [F10, 4-(1,3-dioxo-2,3-dihydro-1H-inden-2-yliden)-6-(2-pyridyl)-2-[4-(trifluoromethoxy)phenyl]perhydropyrrolo [3,4-c]pyrrole-1,3-dione], the cytotoxicity at 50 µM was 100 ± 0.003% in the data set with MCF7 and 60.3 ± 1.1% with MCF7 3D spheroids.

As to `NS(=O)(=O)c1cccc(NC(=O)Nc2ccccc2)c1` [F11, 3-[(anilinocarbonyl)amino]benzenesulfonamide], the cytotoxicity at 50 µM in the data set on MCF7 turned out to be 0%; in the data set on MCF7 3D spheroids, 60.4 ± 0.77%.

Regarding `Cn1c(SCC(=O)NN2CC(=O)N(c3cccc(Cl)c3)CC2=O)nnc1-c1ccncc1` [G02, N-[4-(3-chlorophenyl)-2,5-dioxopiperazino]-2-{[4-methyl-5-(4-pyridinyl)-4H-1,2,4-triazol-3-yl]sulfanyl}acetamide], the cytotoxicity at 50 µM in the data set on MCF7 is 0%; with MCF7 3D spheroids, -9.9 ± 0.8%.

For the molecule `COc1cc(C(F)(F)F)nc2ccc(C#CCOC(=O)c3ccccc3)cc12` [G03, 3-[4-methoxy-2-(trifluoromethyl)-6-quinolyl]prop-2-ynyl benzoate], the cytotoxicity at 50 µM is 49.8 ± 2.9% with MCF7 and 21.3 ± 0.6% in the data set on MCF7 3D spheroids.

As for `Cc1nc(-c2ccc(S(=O)(=O)Nc3ccc4c(c3)OCCO4)s2)cs1` [G04, N-(2,3-dihydro-1,4-benzodioxin-6-yl)-5-(2-methyl-1,3-thiazol-4-yl)-2-thiophenesulfonamide], the cytotoxicity at 50 µM in the data set with MCF7 amounted to 0%; in the data set with MCF7 3D spheroids it was 6.3 ± 0.3%.

Take `COC(=O)c1sccc1S(=O)(=O)Nc1ccc(-c2cn3c(n2)SCC3)cc1` [G05]: in the data set with MCF7, the “% inhibition 2D” value is 65.7% and the “Mean of % cytotoxicity ± SD” value is 65.7 ± 1.0%. Also, in the data set with MCF7 3D spheroids, the “% inhibition 3D” value is 35.1% and the “Mean of % cytotoxicity ± S.D” value worked out at 35.1 ± 0.6%.

Regarding `O=C(NNC1=Nc2ccccc2SC1)c1ccc(F)cc1` [G06, N'-(2H-1,4-benzothiazin-3-yl)-4-fluorobenzohydrazide], the cytotoxicity at 50 µM was 93.4 ± 1.6% in the data set on MCF7 and 52.3 ± 2.3% in the data set on MCF7 3D spheroids.

For the molecule `NS(=O)(=O)c1cccc(NC(=O)c2cccnc2Oc2ccccc2)c1` [G07, N-[3-(aminosulfonyl)phenyl]-2-phenoxynicotinamide], the cytotoxicity at 50 µM is 0% with MCF7 and 35.1 ± 0.77% with MCF7 3D spheroids.

Turning to `N#CCc1ccc(NC(=O)Nc2ccc(OC(F)(F)F)cc2)cc1` [G08, N-[4-(cyanomethyl)phenyl]-N'-[4-(trifluoromethoxy)phenyl]urea], the results for the cytotoxicity at 50 µM with MCF7 and in the data set on MCF7 3D spheroids were 82.8 ± 0.76% and 56.2 ± 3%, respectively.

In the case of `Cc1c(NCN2C(=O)CCC2=O)cc2c(c1[N+](=O)[O-])C(C)(C)CC2(C)C` [G09, 1-{[(1,1,3,3,6-pentamethyl-7-nitro-2,3-dihydro-1H-inden-5-yl)amino]methyl}pyrrolidine-2,5-dione], the cytotoxicity at 50 µM in the data set with MCF7 was 100 ± 0.005%; in the data set with MCF7 3D spheroids, 66.5 ± 1.1%.
